Where no end group is shown, it is not given here. [ ]: non-standard residue; d: D form.
Tests used:
Format in all cases: cell-based
[1] = test system: 3T3-L1 mouse adipocytes; assay: Lipolytic activity: glycerol release in differentiated 3T3-L1 mouse adipocytes (12 h); settings: 3T3-L1 mouse adipocytes, 12 h
Procedure: JCRB9014-A) from Tebu-Bio (Tebu-bio, Barcelona, Spain). Briefly, mouse adipocytes (3T3-L1 cells) were cultured in 48 well plates as described previously (Saez-Lopez et al., 2020). Adipocytes were differentiated using cell culture reagents purchased from Tebu-Bio and following the manufacturer's instructions. At day of differentiation cells were treated in duplicates with vehicle (DMSO), Caffeine (100 μg/ml), and each of the peptides at the specified doses in Table 6a below. At the end of the experiment (12 h), supernatants were collected and glycerol content was measured using a Glycerol Assay Kit (Sigma) following manufacturer's instructions.

[2] = test system: differentiated human subcutaneous adipocytes; assay: Time course lipolytic activity: glycerol release at 120' and 240'; settings: 10 ug/ml, human subcutaneous adipocytes, listed as SEQ ID NO: 2
Procedure: At the end of the experiment, supernatants were collected and glycerol content was measured using a Lipolysis Assay kit from Tebu-bio (LIP-1—NC) following the manufacturer's instructions.

[3] = test system: human subcutaneoous mature adipocytes; assay: Lipolytic activity: glycerol release in human adipocytes (Lipolysis Assay kit); settings: human subcutaneous mature adipocytes

Row | Substance | Lipolysis Activity measured as Glycerol (μM) release in media ([1]; 1 μg/ml) [µM] | Lipolysis Activity measured as Glycerol (μM) release in media ([1]; 10 μg/ml) [µM] | Lipolysis Activity measured as Glycerol (μM) release in media ([1]; 100 μg/ml) [µM] | Lipolytic activity measured as glycerol release ([2]; 120 min) [UM] | Lipolytic activity measured as glycerol release ([2]; 240 min) [UM] | Lipolysis Activity measured as Glycerol (μM) release in media ([3]; 25 μg/ml) [µM] | Lipolysis Activity measured as Glycerol (μM) release in media ([3]; 50 μg/ml) [µM] | Lipolysis Activity measured as Glycerol (μM) release in media ([3]; 75 μg/ml) [µM] | Lipolysis Activity measured as Glycerol (μM) release in media ([3]; 100 μg/ml) [µM]
1 | TWDPEGVIFY [GP3L, comparative L-decapeptide; N-term NH2, C-term COOH, reference compound] | 230 | 250 | 360 | −0.5343 | 17.7363 | – | – | – | –
2 | NDPEGLY (H-[dN][dD][dP][dE]G[dL][dY]-OH; SMILES CC(C)C[C@@H](NC(=O)CNC(=O)[C@@H](CCC(=O)O)NC(=O)[C@H]1CCCN1C(=O)[C@@H](CC(=O)O)NC(=O)[C@H](N)CC(N)=O)C(=O)N[C@H](Cc1ccc(O)cc1)C(=O)O) [GP3D-DM5, N-term NH2, C-term COOH] | – | – | 326 | – | – | 21.84 | 39.18 | 47.07 | 55.12
3 | DPEGVIY (H-[dD][dP][dE]G[dV][dI][dY]-OH; SMILES CC[C@@H](C)[C@@H](NC(=O)[C@H](NC(=O)CNC(=O)[C@@H](CCC(=O)O)NC(=O)[C@H]1CCCN1C(=O)[C@H](N)CC(=O)O)C(C)C)C(=O)N[C@H](Cc1ccc(O)cc1)C(=O)O) [GP3D-7 I II IX, N-term NH2, C-term COOH] | 417 | 380 | 346 | – | – | 19.68 | 34.01 | 46.62 | 56.08
4 | WDPEGLY (H-[dW][dD][dP][dE]G[dL][dY]-OH; SMILES CC(C)C[C@@H](NC(=O)CNC(=O)[C@@H](CCC(=O)O)NC(=O)[C@H]1CCCN1C(=O)[C@@H](CC(=O)O)NC(=O)[C@H](N)Cc1c[nH]c2ccccc12)C(=O)N[C@H](Cc1ccc(O)cc1)C(=O)O) [GP3D-DM1, N-term NH2, C-term COOH] | 356 | 477 | 324 | – | – | 15.94 | 32.98 | 37.78 | 40.28
5 | DPEGVIF (H-[dD][dP][dE]G[dV][dI][dF]-OH; SMILES CC[C@@H](C)[C@@H](NC(=O)[C@H](NC(=O)CNC(=O)[C@@H](CCC(=O)O)NC(=O)[C@H]1CCCN1C(=O)[C@H](N)CC(=O)O)C(C)C)C(=O)N[C@H](Cc1ccccc1)C(=O)O) [GP3D-7 I II X, N-term NH2, C-term COOH] | 391 | 405 | 313 | – | – | 17.04 | 34.80 | 48.09 | 58.31
6 | DPEGLFY (H-[dD][dP][dE]G[dL][dF][dY]-OH; SMILES CC(C)C[C@@H](NC(=O)CNC(=O)[C@@H](CCC(=O)O)NC(=O)[C@H]1CCCN1C(=O)[C@H](N)CC(=O)O)C(=O)N[C@H](Cc1ccccc1)C(=O)N[C@H](Cc1ccc(O)cc1)C(=O)O) [GP3D-DM2, N-term NH2, C-term COOH] | 303 | – | – | – | – | 15.77 | 34.83 | 48.40 | 52.24
7 | WDPEGV (H-[dW][dD][dP][dE]G[dV]-OH; SMILES CC(C)[C@@H](NC(=O)CNC(=O)[C@@H](CCC(=O)O)NC(=O)[C@H]1CCCN1C(=O)[C@@H](CC(=O)O)NC(=O)[C@H](N)Cc1c[nH]c2ccccc12)C(=O)O) [GP3D-6 I VIII IX X, N-term NH2, C-term COOH] | – | – | 360 | – | – | 18.07 | 32.53 | 47.82 | 51.90
8 | DPEGVI (H-[dD][dP][dE]G[dV][dI]-OH; SMILES CC[C@@H](C)[C@@H](NC(=O)[C@H](NC(=O)CNC(=O)[C@@H](CCC(=O)O)NC(=O)[C@H]1CCCN1C(=O)[C@H](N)CC(=O)O)C(C)C)C(=O)O) [GP3D-6 I II IX X, N-term NH2, C-term COOH] | 326 | 300 | 368 | – | – | 17.01 | 40.79 | 43.36 | 53.13
9 | NDPEGVIY (H-[dN][dD][dP][dE]G[dV][dI][dY]-OH; SMILES CC[C@@H](C)[C@@H](NC(=O)[C@H](NC(=O)CNC(=O)[C@@H](CCC(=O)O)NC(=O)[C@H]1CCCN1C(=O)[C@@H](CC(=O)O)NC(=O)[C@H](N)CC(N)=O)C(C)C)C(=O)N[C@H](Cc1ccc(O)cc1)C(=O)O) [GP3D-DM6, N-term NH2, C-term COOH] | 304 | – | 405 | – | – | 19.83 | 37.09 | 48.37 | 55.19
10 | Ac-TWDPEGVIFY (Ac-[dT][dW][dD][dP][dE]G[dV][dI][dF][dY]) [GP3D-Ac, N-term CH3CONH, C-term COOH] | 354 | 388 | 498 | – | – | 16.56 | 36.41 | 43.36 | 58.41
11 | TWPEGVIFY (H-[dT][dW][dP][dE]G[dV][dI][dF][dY]-OH; not fully specified) [GP3D-9 III, N-term NH2, C-term COOH] | – | – | 346 | – | – | – | – | – | –
12 | TDPEGVIFY (H-[dT][dD][dP][dE]G[dV][dI][dF][dY]-OH; not fully specified) [GP3D-9 II, N-term NH2, C-term COOH] | – | – | 315 | – | – | – | – | – | –
13 | DPEGVIFY (H-[dD][dP][dE]G[dV][dI][dF][dY]-OH; not fully specified) [GP3D-8 I II, N-term NH2, C-term COOH] | 401 | 474 | 468 | – | – | – | – | – | –
14 | WDPEGVIY (H-[dW][dD][dP][dE]G[dV]I[dY]-OH; not fully specified (residue 7)) [GP3D-8 I IX, N-term NH2, C-term COOH] | 452 | 426 | 588 | – | – | – | – | – | –
15 | TWDPGVIFY (H-[dT][dW][dD][dP]G[dV][dI][dF][dY]-OH; not fully specified) [GP3D-9 V, N-term NH2, C-term COOH] | – | – | 394 | – | – | – | – | – | –
16 | TWDPEGIFY (H-[dT][dW][dD][dP][dE]G[dI][dF][dY]-OH; not fully specified) [GP3D-9 VII, N-term NH2, C-term COOH] | – | – | 354 | – | – | – | – | – | –
17 | WDNEGLY (H-[dW][dD][dN][dE]G[dL][dY]-OH; SMILES CC(C)C[C@@H](NC(=O)CNC(=O)[C@@H](CCC(=O)O)NC(=O)[C@@H](CC(N)=O)NC(=O)[C@@H](CC(=O)O)NC(=O)[C@H](N)Cc1c[nH]c2ccccc12)C(=O)N[C@H](Cc1ccc(O)cc1)C(=O)O) [GP3D-DM4, N-term NH2, C-term COOH] | 469 | 416 | 309 | – | – | – | – | – | –
18 | TDPEGVIY (H-[dT][dD][dP][dE]G[dV][dI][dY]-OH; not fully specified) [GP3D-8 II IX, N-term NH2, C-term COOH] | 557 | 508 | 370 | – | – | – | – | – | –
